The assay has as its target T1, thioredoxin glutathione reductase (TGR) (Schistosoma mansoni, UniProt Q962Y6).
T1 sequence (Q962Y6 1-598): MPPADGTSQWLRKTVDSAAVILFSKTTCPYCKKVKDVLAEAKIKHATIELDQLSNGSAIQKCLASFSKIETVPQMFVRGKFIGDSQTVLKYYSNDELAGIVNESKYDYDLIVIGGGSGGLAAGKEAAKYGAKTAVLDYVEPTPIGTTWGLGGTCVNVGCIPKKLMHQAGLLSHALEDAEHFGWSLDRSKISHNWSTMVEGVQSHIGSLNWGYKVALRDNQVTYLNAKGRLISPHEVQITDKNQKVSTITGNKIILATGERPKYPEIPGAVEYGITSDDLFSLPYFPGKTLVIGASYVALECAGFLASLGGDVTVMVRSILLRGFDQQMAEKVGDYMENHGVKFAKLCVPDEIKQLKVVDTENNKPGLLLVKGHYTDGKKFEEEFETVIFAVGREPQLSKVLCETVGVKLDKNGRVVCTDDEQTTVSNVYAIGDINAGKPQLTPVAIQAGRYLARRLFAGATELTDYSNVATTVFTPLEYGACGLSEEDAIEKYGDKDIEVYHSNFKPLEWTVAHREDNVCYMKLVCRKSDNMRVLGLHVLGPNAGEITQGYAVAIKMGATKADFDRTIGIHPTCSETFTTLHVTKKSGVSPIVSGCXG
The format is biochemical.

Each structure is given as a SMILES string.

The values that follow come from PMC2669305 (Assay and drug development technologies, 2008).

The IC50 is the point on the concentration scale where inhibition reaches its midpoint. Read a high IC50 as weaker potency. Consider `N#Cc1c(-c2ccccc2)no[n+]1[O-]` [furoxan, 4-phenyl-3-furoxancarbonitrile], for which the IC50 is 4 to 7.9 µM.
